Measured values taken from the NIST ThermoML archive (doi:10.1021/je900903w).

Test: mn = molality of the nth substance listed, in mol/kg
Details: 101 kPa, Liquid; for molar conductivity: Alternating current cell with electrodes

O=C[O-].[K+] [potassium formate] + O
Details | mass density, 298.15 K [kg/m3] | molar conductivity, 278.15 K [S·m2/mol] | molar conductivity, 283.15 K [S·m2/mol] | molar conductivity, 288.15 K [S·m2/mol] | molar conductivity, 293.15 K [S·m2/mol] | molar conductivity, 298.15 K [S·m2/mol] | molar conductivity, 303.15 K [S·m2/mol] | molar conductivity, 308.15 K [S·m2/mol] | molar conductivity, 313.15 K [S·m2/mol]
m1 = 0.0003498 | – | 0.007906 | 0.009019 | 0.01018 | 0.01138 | 0.0126 | 0.01387 | 0.01516 | 0.01649
m1 = 0.0006599 | – | 0.007826 | 0.008931 | 0.01008 | 0.01128 | 0.01251 | 0.01377 | 0.01502 | 0.01632
m1 = 0.001026 | – | 0.007789 | 0.008888 | 0.01003 | 0.01121 | 0.01245 | 0.01371 | 0.015 | 0.01628
m1 = 0.001412 | – | 0.007752 | 0.008844 | 0.009984 | 0.01117 | 0.01239 | 0.01365 | 0.01494 | 0.01622
m1 = 0.001766 | – | 0.007701 | 0.008787 | 0.009919 | 0.0111 | 0.01231 | 0.01356 | 0.01485 | 0.01614
m1 = 0.002217 | – | 0.007674 | 0.008755 | 0.009886 | 0.01106 | 0.01226 | 0.01351 | 0.0148 | 0.01608
m1 = 0.002823 | – | 0.007653 | 0.008729 | 0.009852 | 0.01102 | 0.01223 | 0.01348 | 0.01476 | 0.01606
m1 = 0.003432 | – | 0.007632 | 0.008706 | 0.009826 | 0.01099 | 0.0122 | 0.01344 | 0.01472 | 0.01601
m1 = 0.00406 | – | 0.007611 | 0.008682 | 0.0098 | 0.01097 | 0.01217 | 0.01341 | 0.01468 | 0.01596
m1 = 0.004815 | – | 0.007596 | 0.008665 | 0.00978 | 0.01094 | 0.01214 | 0.01338 | 0.01465 | 0.01593
m1 = 0.005831 | 997.346 | 0.007573 | 0.008637 | 0.009748 | 0.01091 | 0.0121 | 0.01333 | 0.0146 | 0.01587
m1 = 0.1219 | 1002.91 | – | – | – | – | – | – | – | –

O=C[O-].[Na+] [sodium methanoate] + O
Details | mass density, 298.15 K [kg/m3] | molar conductivity, 278.15 K [S·m2/mol] | molar conductivity, 283.15 K [S·m2/mol] | molar conductivity, 288.15 K [S·m2/mol] | molar conductivity, 293.15 K [S·m2/mol] | molar conductivity, 298.15 K [S·m2/mol] | molar conductivity, 303.15 K [S·m2/mol] | molar conductivity, 308.15 K [S·m2/mol] | molar conductivity, 313.15 K [S·m2/mol]
m1 = 0.0002873 | – | 0.00626 | 0.007191 | 0.008167 | 0.009185 | 0.01025 | 0.01134 | 0.01247 | 0.01358
m1 = 0.0003841 | – | 0.006215 | 0.007142 | 0.00813 | 0.009157 | 0.01022 | 0.01133 | 0.01246 | 0.01356
m1 = 0.0005247 | – | 0.006187 | 0.007111 | 0.008093 | 0.009118 | 0.01018 | 0.01128 | 0.01243 | 0.01351
m1 = 0.0005682 | – | 0.006178 | 0.007106 | 0.008083 | 0.009103 | 0.01017 | 0.01126 | 0.01238 | 0.01348
m1 = 0.0006608 | – | 0.006158 | 0.007081 | 0.008058 | 0.009078 | 0.01014 | 0.01124 | 0.01237 | 0.01347
m1 = 0.0008201 | – | 0.006134 | 0.007053 | 0.008027 | 0.009042 | 0.0101 | 0.0112 | 0.01234 | 0.01345
m1 = 0.0008629 | – | 0.006107 | 0.007049 | 0.008019 | 0.009031 | 0.01009 | 0.01118 | 0.01231 | 0.01344
m1 = 0.0009581 | – | 0.006095 | 0.007021 | 0.007988 | 0.009 | 0.01005 | 0.01115 | 0.01228 | 0.01341
m1 = 0.001119 | – | 0.006088 | 0.007002 | 0.007965 | 0.008975 | 0.01002 | 0.01111 | 0.01224 | 0.0134
m1 = 0.001188 | – | 0.006075 | 0.007 | 0.007964 | 0.008973 | 0.01002 | 0.01111 | 0.01224 | 0.01338
m1 = 0.001257 | – | 0.006054 | 0.006986 | 0.007948 | 0.008957 | 0.01001 | 0.0111 | 0.01223 | 0.01337
m1 = 0.001548 | – | 0.006043 | 0.006974 | 0.007934 | 0.008938 | 0.009988 | 0.01107 | 0.01219 | 0.01332
m1 = 0.001921 | – | 0.006045 | 0.006953 | 0.007912 | 0.008914 | 0.009962 | 0.01105 | 0.01216 | 0.01327
m1 = 0.002391 | – | 0.006033 | 0.006939 | 0.007896 | 0.008898 | 0.009943 | 0.01103 | 0.01213 | 0.01325
m1 = 0.003024 | – | 0.006025 | 0.006923 | 0.007876 | 0.008874 | 0.009917 | 0.011 | 0.0121 | 0.0132
m1 = 0.003744 | – | 0.006001 | 0.006901 | 0.007852 | 0.008827 | 0.009883 | 0.01096 | 0.01205 | 0.01315
m1 = 0.004567 | – | 0.00598 | 0.006877 | 0.007823 | 0.008811 | 0.009845 | 0.01092 | 0.01202 | 0.01313
m1 = 0.005591 | 997.307 | 0.005949 | 0.006841 | 0.007783 | 0.008767 | 0.009794 | 0.01086 | 0.01196 | 0.01306
m1 = 0.1222 | 1002.23 | – | – | – | – | – | – | – | –

O=CO [formic acid] + O
Details | mass density, 298.15 K [kg/m3] | molar conductivity, 278.15 K [S·m2/mol] | molar conductivity, 283.15 K [S·m2/mol] | molar conductivity, 288.15 K [S·m2/mol] | molar conductivity, 293.15 K [S·m2/mol] | molar conductivity, 298.15 K [S·m2/mol] | molar conductivity, 303.15 K [S·m2/mol] | molar conductivity, 308.15 K [S·m2/mol] | molar conductivity, 313.15 K [S·m2/mol]
m1 = 0.0002709 | – | 0.0149 | 0.0165 | 0.018 | 0.01947 | 0.02084 | 0.02214 | 0.0233 | 0.0242
m1 = 0.0005657 | – | 0.0113 | 0.0125 | 0.0138 | 0.0149 | 0.0161 | 0.0171 | 0.018 | 0.0189
m1 = 0.0008298 | – | 0.00971 | 0.0108 | 0.0119 | 0.0129 | 0.0139 | 0.0149 | 0.0157 | 0.0164
m1 = 0.001094 | – | 0.00867 | 0.00965 | 0.0106 | 0.0115 | 0.0124 | 0.0133 | 0.0141 | 0.0147
m1 = 0.001442 | – | 0.00773 | 0.00862 | 0.00948 | 0.0103 | 0.0111 | 0.0119 | 0.0126 | 0.0132
m1 = 0.001825 | – | 0.0069 | 0.00768 | 0.00845 | 0.0092 | 0.00991 | 0.0106 | 0.0112 | 0.0117
m1 = 0.002222 | – | 0.00636 | 0.00709 | 0.00781 | 0.0085 | 0.00917 | 0.00981 | 0.0104 | 0.0109
m1 = 0.002648 | – | 0.00593 | 0.00661 | 0.00727 | 0.0079 | 0.00851 | 0.00907 | 0.00959 | 0.0101
m1 = 0.003208 | – | 0.00548 | 0.00611 | 0.00673 | 0.00733 | 0.00791 | 0.00845 | 0.00894 | 0.00939
m1 = 0.003957 | – | 0.00505 | 0.00563 | 0.0062 | 0.00675 | 0.00729 | 0.00779 | 0.00824 | 0.00866
m1 = 0.004898 | 997.113 | 0.00463 | 0.00517 | 0.0057 | 0.00621 | 0.0067 | 0.00717 | 0.0076 | 0.00799
m1 = 0.1291 | 998.53 | – | – | – | – | – | – | – | –
